Reference: patent US10945771B2, “Azabicyclo[4.1.0]heptane allosteric modulators of the M4 muscarinic acetylcholine receptor” (Merck Sharp & Dohme Corp., priority 2017, dated 2021)

Target: T1, human M4 muscarinic acetylcholine receptor (Homo sapiens, UniProt P08173)
T1 construct: expressed in transfected cells; host or cells: CHO-K1
T1 sequence (P08173 1-479): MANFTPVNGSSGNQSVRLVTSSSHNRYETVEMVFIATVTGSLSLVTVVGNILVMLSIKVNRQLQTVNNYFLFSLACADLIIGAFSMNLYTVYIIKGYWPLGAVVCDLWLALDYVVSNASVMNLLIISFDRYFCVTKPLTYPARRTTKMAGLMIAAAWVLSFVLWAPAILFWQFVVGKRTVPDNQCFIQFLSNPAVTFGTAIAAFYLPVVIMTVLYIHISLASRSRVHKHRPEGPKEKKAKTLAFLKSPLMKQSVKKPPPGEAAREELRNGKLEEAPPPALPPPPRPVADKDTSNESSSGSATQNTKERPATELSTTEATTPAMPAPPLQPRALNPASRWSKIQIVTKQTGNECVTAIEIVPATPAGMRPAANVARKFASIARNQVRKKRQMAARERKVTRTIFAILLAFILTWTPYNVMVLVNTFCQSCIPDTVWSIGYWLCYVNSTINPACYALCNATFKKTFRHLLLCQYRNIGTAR
Assay: human FLIPR-based M4 PAM assay (Ca2+ dye fluorescence, CHO-K1 cells with human M4 receptor and Gαqi5)
Type: cell-based
Conditions: inflection point (IP) of dose response curve, FLIPR Tetra, acetylcholine at 20% of maximum response
Method: In a typical experiment the M4 muscarinic acetylcholine receptor modulating activity of the compounds of the present invention was determined in accordance with the following experimental method. CHO-K1 cells stably transfected with human M4 receptor and chimeric G-protein Gαqi5 (Coward P, et al., Analytical Biochemistry, 270:242-248 (1999)) are thawed from liquid N2 storage, resuspended in growth medium, plated in black, clear bottom 384 well plates, and incubated 16-20 hours at 37° C., 5% CO2. On the day of assay, growth medium is removed, the cells are washed 2 times with wash buffer, and cells are incubated in dye loading buffer at 37° C., 5% CO2 for ˜1 hour. Following dye loading the cell plates are placed in a FLIPR Tetra instrument and while monitoring dye fluorescence (excitation […]), 10 uL of test substance at increasing concentrations is added, and fluorescence values are recorded for 4 min. Next, 10 uL of acetylcholine is added (final concentration calculated so as to achieve 20% of the maximum acetycholine response), and the fluorescence reading is continued for 3.5 min. In some cases, a third addition of acetylcholine (final concentration calculated to achieve 70% of the maximal acetylcholine response) is performed. The resulting dose response curves are fit to a 4 parameter logistic equation and the final result is determined as the inflection point (IP) of the curve
CHO-K1 cells stably transfected with human M4 receptor and chimeric G-protein Gαqi5 are thawed from liquid N2 storage, resuspended in growth medium, plated in black, clear bottom 384 well plates, and incubated 16-20 hours at 37° C., 5% CO2.
On the day of assay, growth medium is removed, the cells are washed 2 times with wash buffer, and cells are incubated in dye loading buffer at 37° C., 5% CO2 for ˜1 h. Following dye loading the cell plates are placed in a FLIPR Tetra instrument and while monitoring dye fluorescence ([…]), 10 uL of test substance at increasing concentrations is added, and fluorescence values are recorded for 4 min. Next, 10 uL of acetylcholine is added (final concentration calculated so as to achieve 20% of the maximum acetycholine response), and the fluorescence reading is continued for 3.5 min. In some cases, a third addition of acetylcholine (final concentration calculated to achieve 70% of the maximal acetylcholine response) is performed.

| SMILES | EC50 |
| --- | --- |
| Cc1c(N2CCC(Oc3ccc4c(c3)COC4)C3CC32)nc2c(c1C)C(=O)NC2 (stereo not shown) [Example 27, 2-(5-((1,3-dihydroisobenzofuran-5-yl)oxy)-2-azabicyclo[4.1.0]heptan-2-yl)-3,4-dimethyl-6,7-dihydro-5H-pyrrolo[3,4-b]pyridin-5-one] | 166 nM |
| Cc1cc2c(nc1N1CCC(Oc3ccc4c(c3)COC4)C3CC31)CNC2=O (stereo not shown) [Example 28, 2-(5-((1,3-dihydroisobenzofuran-5-yl)oxy)-2-azabicyclo[4.1.0]heptan-2-yl)-3-methyl-6,7-dihydro-5H-pyrrolo[3,4-b]pyridin-5-one] | 76 nM |
| Cc1cc2c(nc1N1CCC(Oc3ccc4c(c3)COC4)C3CC31)CNC2=O (stereo not shown) [Example 29, 2-(5-((1,3-dihydroisobenzofuran-5-yl)oxy)-2-azabicyclo[4.1.0]heptan-2-yl)-3-methyl-6,7-dihydro-5H-pyrrolo[3,4-b]pyridin-5-one] | 43 nM |
| Cc1cc2c(nc1N1CCC(Oc3ccc4c(c3)COC4)C3CC31)CNC2=O (stereo not shown) [Example 30, 2-(5-((1,3-dihydroisobenzofuran-5-yl)oxy)-2-azabicyclo[4.1.0]heptan-2-yl)-3-methyl-6,7-dihydro-5H-pyrrolo[3,4-b]pyridin-5-one] | 727 nM |
| Cc1cc2c(nc1N1CCC(Oc3ccc4c(c3)CCOC4)C3CC31)CNC2=O (stereo not shown) [Example 31, 2-(5-(isochroman-6-yloxy)-2-azabicyclo[4.1.0]heptan-2-yl)-3-methyl-6,7-dihydro-5H-pyrrolo[3,4-b]pyridin-5-one] | 72 nM |
| Cc1c(N2CCC(Oc3ccc4c(c3)COCC4)C3CC32)nc2c(c1C)C(=O)NC2 (stereo not shown) [Example 35, 2-(5-(isochroman-7-yloxy)-2-azabicyclo[4.1.0]heptan-2-yl)-3,4-dimethyl-6,7-dihydro-5H-pyrrolo[3,4-b]pyridin-5-one] | 281 nM |
| Cc1cc2c(nc1N1CCC(Oc3ccc4c(c3)COCC4)C3CC31)CNC2=O (stereo not shown) [Example 36, 2-(5-(isochroman-7-yloxy)-2-azabicyclo[4.1.0]heptan-2-yl)-3-methyl-6,7-dihydro-5H-pyrrolo[3,4-b]pyridin-5-one] | 156 nM |

Second part, the molecule after the results:

| EC50 | SMILES |
| --- | --- |
| 195 nM | Cc1c(N2CCC(OCC3(C)CC3)C3CC32)nc2c(c1C)C(=O)N1CCC(C)(O)CC21 (stereo not shown) [Example 25, 9-hydroxy-3,4,9-trimethyl-2-(5-((1-methylcyclopropyl)methoxy)-2-azabicyclo[4.1.0]heptan-2-yl)-8,9,10,10a-tetrahydropyrido[2,3-a]indolizin-5(7H)-one] |
| 153 nM | Cc1c(N2CCC(OCC3(C)CC3)C3CC32)nc2c(c1C)C(=O)N1CCOCC21 (stereo not shown) [Example 26, 3,4-dimethyl-2-(5-((1-methylcyclopropyl)methoxy)-2-azabicyclo[4.1.0]heptan-2-yl)-7,8,10,10a-tetrahydro-5H-pyrido[2′,3′:3,4]pyrrolo[2,1-c][1,4]oxazin-5-one] |
| 143 nM | Cc1c(N2CCC(Oc3ccc4c(c3)COC4)C3CC32)nc2c(c1C)C(=O)N(C)C2 (stereo not shown) [Example 37, 2-(5-((1,3-dihydroisobenzofuran-5-yl)oxy)-2-azabicyclo[4.1.0]heptan-2-yl)-3,4,6-trimethyl-6,7-dihydro-5H-pyrrolo[3,4-b]pyridin-5-one] |
